# From patent publication US20080280862A1, “Methods, compositions, and kits for the treatment of pain” (priority 2007, published 2008)
# Experiments:
# [1] = test system: carrageenan-induced pain model in rats; assay: Carrageenan pain model, mechanical allodynia by Von Frey filaments; assay type: in vivo, Sprague-Dawley rats; conditions: for Mean AUC ± SEM: AUC from 20 minutes through 120 minutes following carrageenan injection; for mean change from baseline: Table 4
# Description: The carrageenan model is a fast, reliable model used to assess the ability of analgesics to block inflammatory pain. The analgesic effects of test article combinations on pain generation are assayed using the carrageenan-induced pain model in rats. Adult male Sprague-Dawley rats are administered study drugs intraperitoneally (vehicle, tricyclic compound (TCA), steroid or TCA/Steroid test article combinations) once daily for 2 days (day −2 and day −1) and 30 minutes prior to the carrageenan injection on day 0 (time=0). For the carrageenan injection, animals are lightly anesthetized and 0.1 ml of 2% carrageenan is injected into the plantar surface of the right hind paw. The positive control diclofenac at a dose of 25 mg/kg is administered intraperitoneally immediately before the carrageenan injection. Paw volumes (right and left) are measured using a plathysmometer before drug administration on day −2 and serve as a baseline measurement. The paw volumes are measured again two hours post carrageenan injection. The degree of mechanical allodynia is measured by a blinded observer using Von Frey filaments applied to the plantar surface of the hind paws in an increasing numerical order. Each filament increases the force applied on the paw. The filaments are applied until animal paw withdrawal is achieved. This procedure is carried out before drug administration (day −2), on day −1 and on day 0 at time=0, 20, 40, 60, 80 and 120 minutes post-carrageenan. The force (expressed in grams) required for paw withdrawal after carrageenan injection is subtracted from the force required for paw withdrawal before carrageenan injection. Results are expressed as mean change from baseline across five timepoints post carrageenan injection in Table 4.
# For a synergy calculation, experimental data from the carrageenan study are fitted to a median-effect model and used to calculate the parameters' median-effect dose (Dm), slope (m), correlation coefficient (r), combination index (CI) and dose-reduction index (DRI). In addition, the probability of pain inhibition occurring after single-component (nortriptyline) versus the combination drug treatments are calculated from the negative change from baseline data using a Bayesian sensitivity analysis. The likelihood of pain inhibition is characterized for nortriptyline administered alone (1 mg/kg or 3 mg/kg) versus the fixed-dose combination treatments [prednisolone (0.3 mg/kg):nortriptyline (1 mg/kg) or prednisolone (1 mg/kg):nortriptyline (3 mg/kg)] each evaluated at 60 and 80 minutes for analgesic effect.
# In another example, the effects of test article combinations on pain inhibition were assayed using the carrageenan model in rodents. Desipramine was tested alone and in combination at 0.3, 1, and 3 mg/kg and prednisolone was tested similarly at 0.3, 1 and 3 mg/kg IP.
# [2] = test system: acetic acid-induced pain model in mice; assay: Acetic acid pain model, writhes; assay type: in vivo, ICR mice
# Description: The acetic acid is a reliable fast model for noxious/visceral pain usually used for screening potential drug candidates for their analgesic activity. The effects of test article combinations on pain generation are assayed using the acetic acid-induced pain model in mice. Adult male ICR mice are administered study drugs intraperitoneally (vehicle, TCA, steroid or TCA/Steroid test article combinations) once daily for 2 days (day −2 and day −1) and 30 minutes prior to the acetic acid injection on day 0 (time=0). […] To elicit a pain response, dilute acetic acid (10 ml/kg of 0.6% solution) is injected intraperitoneally into the abdomen. The animal is placed in an observation chamber, and 5 minutes after acetic acid administration, the number of writhes is counted and recorded over a five minute period by a blinded observer. A writhe is considered as a contraction of the abdominal muscles accompanied by an elongation of the body and extension of the hind limb. Results are expressed as number of writhes.
# [3] = Experiment Two, first set of rows, 3 mg/kg, 20 minutes
# [4] = Experiment Two, first set of rows, 3 mg/kg, 40 minutes
# [5] = Experiment Two, first set of rows, 3 mg/kg, 60 minutes
# [6] = Experiment Two, first set of rows, 3 mg/kg, 80 minutes
# [7] = Experiment Two, first set of rows, 3 mg/kg, 120 minutes
smiles,measurement,setting,value
CN(C)CCC=C1c2ccccc2CCc2ccccc21 [Amitriptyline],Mean change from baseline ± SEM,"[1]; Experiment One, 1 mg/kg, 20 minutes",3.40 ± 3.40 g
same,Mean change from baseline ± SEM,"[1]; Experiment One, 1 mg/kg, 40 minutes",-49.80 ± 5.19 g
same,Mean change from baseline ± SEM,"[1]; Experiment One, 1 mg/kg, 60 minutes",-113.80 ± 7.21 g
same,Mean change from baseline ± SEM,"[1]; Experiment One, 1 mg/kg, 80 minutes",-177.80 ± 10.44 g
same,Mean change from baseline ± SEM,"[1]; Experiment One, 1 mg/kg, 120 minutes",-231.00 ± 12.33 g
same,Mean change from baseline ± SEM,"[1]; Experiment One, 3 mg/kg, 20 minutes",11.40 ± 5.82 g
same,Mean change from baseline ± SEM,"[1]; Experiment One, 3 mg/kg, 40 minutes",-56.60 ± 9.09 g
same,Mean change from baseline ± SEM,"[1]; Experiment One, 3 mg/kg, 60 minutes",-120.60 ± 11.72 g
same,Mean change from baseline ± SEM,"[1]; Experiment One, 3 mg/kg, 80 minutes",-173.80 ± 9.90 g
same,Mean change from baseline ± SEM,"[1]; Experiment One, 3 mg/kg, 120 minutes",-192.10 ± 10.67 g
same,Mean change from baseline ± SEM,"[1]; Experiment One, 10 mg/kg, 20 minutes",11.30 ± 5.83 g
same,Mean change from baseline ± SEM,"[1]; Experiment One, 10 mg/kg, 40 minutes",-41.90 ± 9.86 g
same,Mean change from baseline ± SEM,"[1]; Experiment One, 10 mg/kg, 60 minutes",-99.10 ± 11.33 g
same,Mean change from baseline ± SEM,"[1]; Experiment One, 10 mg/kg, 80 minutes",-148.90 ± 12.63 g
same,Mean change from baseline ± SEM,"[1]; Experiment One, 10 mg/kg, 120 minutes",-177.70 ± 16.01 g
same,Mean change from baseline ± SEM,"[1]; Experiment One, 20 mg/kg, 20 minutes",19.90 ± 6.68 g
same,Mean change from baseline ± SEM,"[1]; Experiment One, 20 mg/kg, 40 minutes",-33.30 ± 7.80 g
same,Mean change from baseline ± SEM,"[1]; Experiment One, 20 mg/kg, 60 minutes",-93.30 ± 7.80 g
same,Mean change from baseline ± SEM,"[1]; Experiment One, 20 mg/kg, 80 minutes",-138.60 ± 6.03 g
same,Mean change from baseline ± SEM,[1]; [3],-2.20 ± 3.62 g
same,Mean change from baseline ± SEM,[1]; [4],-6.19 ± 5.21 g
same,Mean change from baseline ± SEM,[1]; [5],-1.60 ± 3.83 g
same,Mean change from baseline ± SEM,[1]; [6],15.70 ± 5.20 g
same,Mean change from baseline ± SEM,[1]; [7],26.61 ± 4.90 g
same,Mean # of writhes per 5 minutes ± SEM,[2]; 1 mg/kg ip,8.71 ± 2.44
same,Mean # of writhes per 5 minutes ± SEM,[2]; 3 mg/kg ip,11.62 ± 2.94
same,Mean # of writhes per 5 minutes ± SEM,[2]; 5 mg/kg ip,4.50 ± 2.04
same,Mean # of writhes per 5 minutes ± SEM,[2]; 10 mg/kg ip,0.79 ± 0.79
CNCCC=C1c2ccccc2CCc2ccccc21 [Nortriptyline],Mean AUC ± SEM,[1]; 1 mg/Kg,1895 ± 547.01
same,Mean AUC ± SEM,[1]; 3 mg/Kg,3082 ± 275.81
same,Mean change from baseline ± SEM,"[1]; Experiment Two, first set of rows, 1 mg/kg, 20 minutes",16.94 ± 7.35 g
same,Mean change from baseline ± SEM,"[1]; Experiment Two, first set of rows, 1 mg/kg, 40 minutes",17.01 ± 7.37 g
same,Mean change from baseline ± SEM,"[1]; Experiment Two, first set of rows, 1 mg/kg, 60 minutes",22.36 ± 4.36 g
same,Mean change from baseline ± SEM,"[1]; Experiment Two, first set of rows, 1 mg/kg, 80 minutes",29.59 ± 4.80 g
same,Mean change from baseline ± SEM,"[1]; Experiment Two, first set of rows, 1 mg/kg, 120 minutes",37.64 ± 5.20 g
same,Mean change from baseline ± SEM,[1]; [3],5.83 ± 6.21 g
same,Mean change from baseline ± SEM,[1]; [4],5.83 ± 6.21 g
same,Mean change from baseline ± SEM,[1]; [5],12.87 ± 5.09 g
same,Mean change from baseline ± SEM,[1]; [6],15.84 ± 5.10 g
same,Mean change from baseline ± SEM,[1]; [7],35.98 ± 4.09 g
same,Mean change from baseline ± SEM,"[1]; Experiment Two, second set of rows, 1 mg/kg, 20 minutes",17.00 ± 6.43 g
same,Mean change from baseline ± SEM,"[1]; Experiment Two, second set of rows, 1 mg/kg, 40 minutes",-4.25 ± 4.25 g
same,Mean change from baseline ± SEM,"[1]; Experiment Two, second set of rows, 1 mg/kg, 60 minutes",32.50 ± 4.96 g
same,Mean change from baseline ± SEM,"[1]; Experiment Two, second set of rows, 1 mg/kg, 80 minutes",29.75 ± 4.25 g
same,Mean change from baseline ± SEM,"[1]; Experiment Two, second set of rows, 1 mg/kg, 120 minutes",33.88 ± 5.21 g
same,Mean change from baseline ± SEM,"[1]; Experiment Two, second set of rows, 3 mg/kg, 20 minutes",17.00 ± 6.43 g
same,Mean change from baseline ± SEM,"[1]; Experiment Two, second set of rows, 3 mg/kg, 40 minutes",0.00 ± 6.43 g
same,Mean change from baseline ± SEM,"[1]; Experiment Two, second set of rows, 3 mg/kg, 60 minutes",17.00 ± 6.43 g
same,Mean change from baseline ± SEM,"[1]; Experiment Two, second set of rows, 3 mg/kg, 80 minutes",0.00 ± 0.00 g
same,Mean change from baseline ± SEM,"[1]; Experiment Two, second set of rows, 3 mg/kg, 120 minutes",0.00 ± 0.00 g
same,mean change from baseline,"[1]; 1 mg/kg ip, 20 minutes post carrageenan",25.50 ± 7.90 grams
same,mean change from baseline,"[1]; 1 mg/kg ip, 40 minutes post carrageenan",−4.70 ± 8.13 grams
same,mean change from baseline,"[1]; 1 mg/kg ip, 60 minutes post carrageenan",−59.30 ± 10.6 grams
same,mean change from baseline,"[1]; 1 mg/kg ip, 80 minutes post carrageenan",−99.70 ± 13.75 grams
same,mean change from baseline,"[1]; 1 mg/kg ip, 120 minutes post carrageenan",−146.90 ± 19.62 grams
same,mean change from baseline,"[1]; 3 mg/kg ip, 20 minutes post carrageenan",7.40 ± 10.10 grams
same,mean change from baseline,"[1]; 3 mg/kg ip, 40 minutes post carrageenan",−49.20 ± 11.54 grams
same,mean change from baseline,"[1]; 3 mg/kg ip, 60 minutes post carrageenan",−109.20 ± 11.54 grams
same,mean change from baseline,"[1]; 3 mg/kg ip, 80 minutes post carrageenan",−169.20 ± 11.54 grams
same,mean change from baseline,"[1]; 3 mg/kg ip, 120 minutes post carrageenan",−205.40 ± 11.35 grams
same,mean change from baseline,"[1]; 10 mg/kg ip, 20 minutes post carrageenan",−4.00 ± 8.20 grams
same,mean change from baseline,"[1]; 10 mg/kg ip, 40 minutes post carrageenan",−68.60 ± 10.46 grams
same,mean change from baseline,"[1]; 10 mg/kg ip, 60 minutes post carrageenan",−112.80 ± 13.51 grams
same,mean change from baseline,"[1]; 10 mg/kg ip, 80 minutes post carrageenan",−157.00 ± 17.21 grams
same,mean change from baseline,"[1]; 10 mg/kg ip, 120 minutes post carrageenan",−185.80 ± 20.18 grams
same,mean change from baseline,"[1]; 20 mg/kg ip, 20 minutes post carrageenan",−17.60 ± 5.89 grams
same,mean change from baseline,"[1]; 20 mg/kg ip, 40 minutes post carrageenan",−74.20 ± 7.72 grams
same,mean change from baseline,"[1]; 20 mg/kg ip, 60 minutes post carrageenan",−130.80 ± 10.37 grams
same,mean change from baseline,"[1]; 20 mg/kg ip, 80 minutes post carrageenan",−190.80 ± 10.37 grams
same,mean change from baseline,"[1]; 20 mg/kg ip, 120 minutes post carrageenan",−255.40 ± 14.97 grams
same,decrease of median-effect dose (Dm) after co-administration compared to the monotherapy,"[1]; median-effect model, prednisolone/nortriptyline 1:3 fixed ratios",4 fold
same,Mean # of writhes per 5 minutes ± SEM,[2]; 1 mg/kg ip,11.78 ± 3.44
same,Mean # of writhes per 5 minutes ± SEM,[2]; 5 mg/kg ip,7.79 ± 3.81
same,Mean # of writhes per 5 minutes ± SEM,[2]; 10 mg/kg ip,7.57 ± 2.53
same,Mean # of writhes per 5 minutes ± SEM,[2]; 15 mg/kg ip,2.07 ± 1.42
